Test results published in PMC8097418, “In Vitro and In Vivo Antibacterial Activities of a Novel Quinolone Compound, OPS-2071, against Clostridioides difficile” (Antimicrobial Agents and Chemotherapy, 2021).
Values after ≈ are worked out from the molar mass of the structure shown. Read-outs that look alike come from different tables or passages of the source.

Tests used:
[1] = Pharmacokinetics in the rat (plasma, oral and intravenous); assay type: in vivo, male SD rats
Experimental: OPS-2071 was orally or intravenously administered at 1 mg/kg to male SD rats, and plasma was collected 0.5, 1, 2, 4, 6, 8, 12, 24, 48, and 72 h postdose (oral, n = 3 for each time point) or 0.083, 0.25, 0.5, 1, 2, 4, 6, 8, 12, 24, 48, and 72 h postdose (intravenous, n = 3 for each time point). After solid-phase extraction, the OPS-2071 concentration in plasma was determined by a validated LC-ESI-MS/MS method, and bioavailability was calculated. The mass spectrometer QTRAP 5500 (AB Sciex Pte. Ltd.) and high-performance liquid chromatography Prominence UFLCXR system (Shimadzu Corp.) were used. The PK parameters (AUCt) were determined with the same WinNonlin professional software, and the bioavailability was calculated from AUCt,oral and AUCt,intravenous.

in vitro = details: mouse
[2] = tested on: 10 clinical isolates of C. difficile; test: MIC (broth dilution) and MBC testing, 10 clinical isolates; assay type: cell-based, Clostridioides difficile; details: 10 clinical isolates
Experimental: In this test, MIC testing was performed using the broth dilution method as recommended in the CLSI ([41]). After the MICs were determined, 10 μl of the bacterial suspension from the MIC test tube was inoculated onto agar plates and incubated at 37°C. The bacterial colonies were then counted and bacterial numbers were calculated. The MBC was considered to be the lowest concentration of the antibiotics that prevented growth and reduced the inoculum by >99.9% within 48 h, irrespective of counts of survivors at higher antibiotic concentrations.

[3] = target: DNA gyrase of C. difficile (Clostridioides difficile, UniProt Q18C89+Q18C90); test: biochemical
C. difficile ATCC 700057 [4] = test: MIC by broth dilution (GAM broth); assay type: cell-based, Clostridioides difficile; details: Clostridioides difficile, read-out: MIC
Experimental: MICs obtained using the agar dilution method were determined visually as described for the CLSI method ([41], [42]). MICs obtained using the broth dilution method were determined visually based on the CLSI method except for using Gifu anaerobic medium (GAM) broth instead of supplemented Brucella broth ([41], [42]).

C. difficile ATCC 700057 [5] = test: Killing kinetics (time-kill curves); assay type: cell-based, Clostridioides difficile
Experimental: The test tubes were incubated for 48 h. The CFU/ml values of the bacterial suspensions were calculated at 0, 2, 4, 6, 24, and 48 h by culturing 0.1-ml samples of serial 10-fold dilutions on GAM agar plates at 37°C under anaerobic conditions and then counting the number of growing colonies. The CFU/ml value at each time point is from one sample of datum.

C. difficile ATCC 43255 [6] = test: MIC against the infection strain; assay type: cell-based, Clostridioides difficile
[7] = Pharmacokinetics in the hamster (cecal contents); assay type: in vivo, male Syrian hamsters; details: male, Syrian, 2 mg/kg oral
Experimental: OPS-2071 was orally administered at 2 mg/kg to male Syrian hamsters, and the cecal contents were collected 0.5, 1, 2, 4, 8, 24, 48, and 72 h postdose (n = 5 for each time point). After homogenizing with saline and treatment using acetonitrile-formic acid (100:1 [vol/vol]), the OPS-2071 concentration in cecal contents was determined using a validated liquid chromatography-electrospray ionization-tandem mass spectrometry (LC-ESI-MS/MS) method. The mass spectrometer 4000 QTRAP (AB Sciex Pte. Ltd.) and high-performance liquid chromatography Prominence UFLC system (Shimadzu Corp.) were used. The pharmacokinetic (PK) parameters (Cmax) were determined with WinNonlin professional software version 6.3, (Pharsight Corp.).

C. difficile ATCC 700057 [8] = assay type: cell-based, Clostridioides difficile
C. difficile ATCC 700057 [9] = test: Effect of pH on MIC (agar dilution); assay type: cell-based, Clostridioides difficile; details: for MIC: Clostridioides difficile
[10] = tested on: hypervirulent and nonhypervirulent strains of C. difficile (62 strains); test: MIC distribution against 20 hypervirulent and 42 nonhypervirulent strains; assay type: cell-based, Clostridioides difficile; details: for MIC50 / MIC90: Clostridioides difficile
C. difficile ATCC 43255 [11] = test: In vivo hamster model of C. difficile infection; design: species or system golden Syrian hamsters
Experimental: C. difficile ATCC 43255 was cultured on GAM agar, and a bacterial suspension was prepared in saline ([26]). […] Hamsters were infected using oral gavage with 0.5 ml of suspension containing approximately 10^6 CFU of C. difficile (day −1). The next day, the animals were administered clindamycin phosphate (0.2 mg/ml in water) by oral gavage at a dose of 5 ml/kg of body weight, for a final dose of 1 mg/kg (day 0). The animals were allocated to the test groups using a stratified randomization method based on the body weight of each infected animal. The test compounds were administered by oral gavage once daily for 5 days (OPS-2071, 0.008 to 1 mg/kg; fidaxomicin, 0.04 mg/kg to 5 mg/kg; vancomycin, 0.04 to 5 mg/kg [5-fold dilution]). Infected control animals were administered 5% (wt/vol) gum arabic solution by oral gavage. […] The cecal contents of dead animals were tested for toxin A and toxin B using C.Diff Quik Chek Complete (Abbott Diagnostics Medical Co., Ltd., Tokyo, Japan) to confirm that the death of the animal was due to CDI.
The statistical significance of OPS-2071, fidaxomicin, and vancomycin treatment was analyzed at all doses against vehicle. Survival curves were estimated for each group using the Kaplan-Meier method. Differences in survival homogeneity in each group were evaluated with a log-rank test with Dunnett-type (two-sided) comparison.

[12] = nonhypervirulent strains (n = 42)

Chain of DNA gyrase of C. difficile (Q18C90 entry or part of it): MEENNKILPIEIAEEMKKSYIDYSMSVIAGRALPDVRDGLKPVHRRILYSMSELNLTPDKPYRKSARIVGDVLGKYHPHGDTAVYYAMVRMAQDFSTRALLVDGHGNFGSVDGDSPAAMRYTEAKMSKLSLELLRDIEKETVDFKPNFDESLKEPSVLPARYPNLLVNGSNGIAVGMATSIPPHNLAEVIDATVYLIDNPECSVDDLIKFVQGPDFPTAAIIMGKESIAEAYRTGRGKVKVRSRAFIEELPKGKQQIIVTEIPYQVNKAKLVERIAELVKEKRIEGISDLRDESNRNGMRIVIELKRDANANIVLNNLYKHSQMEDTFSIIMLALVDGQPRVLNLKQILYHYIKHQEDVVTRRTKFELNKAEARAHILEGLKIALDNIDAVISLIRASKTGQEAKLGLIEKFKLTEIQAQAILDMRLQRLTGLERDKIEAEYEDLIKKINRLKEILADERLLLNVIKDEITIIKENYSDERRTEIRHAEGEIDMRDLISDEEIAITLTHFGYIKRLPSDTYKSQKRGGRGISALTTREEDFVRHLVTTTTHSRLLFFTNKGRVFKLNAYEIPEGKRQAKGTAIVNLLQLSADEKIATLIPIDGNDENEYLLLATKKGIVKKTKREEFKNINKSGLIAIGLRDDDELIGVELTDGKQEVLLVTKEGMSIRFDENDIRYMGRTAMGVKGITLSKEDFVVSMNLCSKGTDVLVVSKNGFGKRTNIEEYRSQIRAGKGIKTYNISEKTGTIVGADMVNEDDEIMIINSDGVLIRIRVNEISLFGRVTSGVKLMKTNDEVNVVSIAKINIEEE
Chain of DNA gyrase of C. difficile (Q18C89 entry or part of it): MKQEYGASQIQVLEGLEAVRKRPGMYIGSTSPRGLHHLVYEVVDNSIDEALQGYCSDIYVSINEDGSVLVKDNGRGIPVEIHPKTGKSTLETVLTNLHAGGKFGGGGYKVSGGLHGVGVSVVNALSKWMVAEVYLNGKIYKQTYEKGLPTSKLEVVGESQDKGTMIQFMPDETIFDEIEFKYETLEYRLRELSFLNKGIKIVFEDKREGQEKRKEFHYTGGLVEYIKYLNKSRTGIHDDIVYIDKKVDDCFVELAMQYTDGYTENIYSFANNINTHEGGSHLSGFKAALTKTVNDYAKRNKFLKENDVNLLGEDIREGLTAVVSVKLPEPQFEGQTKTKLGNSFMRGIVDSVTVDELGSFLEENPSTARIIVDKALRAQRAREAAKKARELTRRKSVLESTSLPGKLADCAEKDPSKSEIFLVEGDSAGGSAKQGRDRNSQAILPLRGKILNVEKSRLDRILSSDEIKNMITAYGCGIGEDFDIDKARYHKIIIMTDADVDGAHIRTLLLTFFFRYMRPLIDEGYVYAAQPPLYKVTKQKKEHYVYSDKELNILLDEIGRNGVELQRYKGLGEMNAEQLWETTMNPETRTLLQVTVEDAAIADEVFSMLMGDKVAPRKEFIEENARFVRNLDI

## Cc1c(-c2cnc(N)c(C#N)c2)c(F)cc2c(=O)c(C(=O)O)cn(C3CC3)c12 [OPS-2071, 7-(6-amino-5-cyanopyridin-3-yl)-1-cyclopropyl-6-fluoro-8-methyl-4-oxo-1,4-dihydroquinoline-3-carboxylic acid]
[1]; 1 mg/kg oral or intravenous
  plasma concentrations at 48 and 72 h after administration: < 0.5 ng/mL
[1]; male, SD, rat, plasma, 1 mg/kg, from AUCt oral and intravenous
  bioavailability: 2.9%
[1]; male, SD, rat, intravenous, 1 mg/kg, plasma
  AUC(0-t): 672 ng·h/mL
[1]; male, SD, rat, oral, 1 mg/kg, plasma
  AUC(0-t): 19.5 ng·h/mL
In vitro
  IC50 at 110 min: > 100 µg/mL
[2]
  MBC90/MIC90: 1
[2]; >99.9% reduction within 48 h
  MBC Range: 0.03 to 0.5 µg/mL
[2]; broth dilution
  MIC range: 0.03 to 0.5 µg/mL
[2]; Clostridioides difficile, broth dilution, read-out: MIC90
  MIC90: 0.5 µg/mL (≈ 1.32 µM)
[2]; Clostridioides difficile, read-out: MBC90
  MBC: 0.5 µg/mL (≈ 1.32 µM)
[3]
  IC50: 608 nM
C. difficile ATCC 700057 [4]; ATCC700057, broth dilution, retested for the time-kill assay
  MIC: 0.03 µg/mL (≈ 0.0793 µM)
C. difficile ATCC 700057 [4]; ATCC700057, broth method, determined for the PAE assay
  MIC: 0.06 µg/mL (≈ 0.159 µM)
C. difficile ATCC 700057 [5]; after 48 h of incubation
  regrowth of the bacteria: regrowth of the bacteria did not occur
C. difficile ATCC 700057 [5]; concentrations higher than the MIC
  time to undetectable level of viable bacteria: ≤ 24 h
C. difficile ATCC 700057 [5]; concentrations higher than the MIC, first 2 h
  reduction of viable bacteria: 2 log
C. difficile ATCC 43255 [6]
  MIC: 0.016 µg/mL (≈ 0.0423 µM)
[7]; 24 h, read-out: concentration in the cecal contents at 24 h postdose
  concentration at 24 h: 1840 ng/g
[7]; reached at 4 h postdose, read-out: maximum concentration (Cmax) in the cecal contents
  Cmax: 43000 ng/g
C. difficile ATCC 700057 [8]; 4× MIC
  Frequency of spontaneous resistance: <9.17 × 10^–9
C. difficile ATCC 700057 [8]; 16× MIC
  Frequency of spontaneous resistance: <9.17 × 10^–9
C. difficile ATCC 700057 [8]; 64× MIC
  Frequency of spontaneous resistance: <9.17 × 10^–9
C. difficile ATCC 700057 [9]; ATCC700057, pH 6
  MIC: 0.016 µg/mL (≈ 0.0423 µM)
C. difficile ATCC 700057 [9]; ATCC700057, pH 7
  MIC: 0.016 µg/mL (≈ 0.0423 µM)
C. difficile ATCC 700057 [9]; ATCC700057, pH 8
  MIC: 0.03 µg/mL (≈ 0.0793 µM)
C. difficile ATCC 700057 [9]; pH 6 to 8
  influence of pH on MICs: not influenced by pH
[10]; hypervirulent strains (n = 20)
  MIC50: 0.03 µg/mL (≈ 0.0793 µM)
  MIC90: 0.25 µg/mL (≈ 0.661 µM)
  MIC range: 0.03 to 0.25 µg/mL
[10]; [12]
  MIC50: 0.03 µg/mL (≈ 0.0793 µM)
  MIC90: 0.125 µg/mL (≈ 0.33 µM)
  MIC range: 0.03 to 0.25 µg/mL
[10]; Hyp (n = 20), MIC 0.063 μg/ml
  Cumulative percentage of strains: 75%
[10]; Hyp (n = 20), MIC 0.25 μg/ml
  Cumulative percentage of strains: 100%
[10]; Non-hyp (n = 42), MIC 0.063 μg/ml
  Cumulative percentage of strains: 88%
[10]; Non-hyp (n = 42), MIC 0.25 μg/ml
  Cumulative percentage of strains: 100%
C. difficile ATCC 43255 [11]; hamster, in vivo
  ED50 fold lower than that of fidaxomicin: 52.1 fold
  ED50 fold lower than that of vancomycin: 39.0 fold
C. difficile ATCC 43255 [11]; survival on day 20, oral once daily for 5 days, probit method
  50% effective dose (ED50): 0.0313 mg/kg/day
C. difficile ATCC 43255 [11]; survival, log-rank test
  dosages with significant efficacy compared with vehicle control: ≥ 0.04 mg/kg
